Experimental data as given in patent US20220177471A1, “N-1 BRANCHED ALKYL SUBSTITUTED IMIDAZO[4,5-C]QUINOLINE COMPOUNDS, COMPOSITIONS, AND METHODS” (3M INNOVATIVE PROPERTIES COMPANY, priority 2019, published 2022).
Like-named read-outs stand apart in the source and are kept apart here.

Test system: Human peripheral blood mononuclear cells (PBMC)
Test: Cytokine induction in human cells (PBMC), cytokines by ELISA / multiplex bead assay
Type: cell-based
Conditions: for minimal effective concentration: human PBMC, 21-24 hours, lowest concentration giving cytokine level at least 2x negative control
Method: Whole blood was obtained from healthy human donors and collected by venipuncture into vacutainer tubes or syringes containing EDTA. Human peripheral blood mononuclear cells (PBMC) were purified from the whole blood by density gradient centrifugation. Histopaque 1077 (15 mL, Sigma, St. Louis, Mo.) was transferred to 6×50 mL sterile polypropylene conical tubes. The Histopaque was overlayed with 15-25 mL of blood diluted 1:2 in Hank's Balanced Salts Solution (HBSS) (Gibco, Life Technologies, Grand Island, N.Y.). The tubes were then centrifuged at 1370 revolutions per minute (rpm) for 30 minutes at 20° C., with no brake (400×g, GH 3.8 A Rotor).
The interface (buffy coat) containing the PBMC was collected and placed in a new sterile 50 mL conical polypropylene centrifuge tube. The PBMC were mixed with an equal volume of HBSS (about 20 mL from the interface and about 20 mL of HBSS), and then centrifuged at 1090 rpm, 10 minutes, 20° C., with brake (270×g, GH 3.8 A Rotor). After completing centrifugation, the cells were resuspended in 2-3 mL ACK Red blood cell lysis buffer (ammonium chloride potassium solution, Gibco, Life Technologies) and incubated for 2-5 minutes at 20° C. Next, HBSS (40 mL) was added to the cells, and the sample was centrifuged at 270×g for 10 minutes at 20° C. The supernatant was decanted, and the cell pellet was resuspended in 5 mL AIM V Medium (Gibco, Life Technologies). Cell aggregates and debris were removed by filtering the cell solution through a BD Falcon 70 micron nylon cell strainer (BD Biosciences, San Jose, Calif.).
The number of viable cells was determined by counting with a Miltenyi FACS instrument (Miltenyi Biotec Inc., San Diego, Calif.) or by using a hemacytometer. For determining cell viability with a hemacytometer, the cells were diluted 1/10 in 0.4% trypan blue and HBSS (specifically, 50 microliter of trypan blue+40 microliter of HBSS+10 microliter of cell solution were added to a microfuge tube and mixed). Ten microliters of the diluted cells were then applied to the hemacytometer, and the number of viable PBMC were determined by microscopy.
The PBMC sample was then resuspended in 96-well plates at a concentration of 8×10^5 cells/well in 0.1 mL of AIM-V medium. Each compound was solubilized in dimethyl sulfoxide (DMSO) to create a 3 mM stock solution. The stock solution was then further diluted with AIM-V medium to prepare the serial dilutions. The diluted compound (100 microliters) was then transferred to the PBMCs to produce testing sets with final compound concentrations of either 30, 10, 3.3, 1.1, 0.37, 0.12, 0.04, 0.01 micromolar (testing set A); 100, 30, 10, 3.3, 1.1, 0.37, 0.12, 0.04, 0.01, 0.005 micromolar (testing set B); 100, 33.3, 11.1, 3.7, 1.2, 0.41 micromolar (testing set C); or 100, 50, 30, 10, 3.3, 1.1, 0.37, 0.12, 0.04 micromolar (testing set D). The plates also had both positive and negative controls. The negative control wells contained only AIM-V medium with no example compound. The positive control wells contained a control set of imiquimod serially diluted to concentrations of either 30, 10, 3.3, 1.1, 0.37, 0.12, 0.04, 0.01 micromolar (control set A); 100, 30, 10, 3.3, 1.1, 0.37, 0.12, 0.04, 0.01, 0.005 micromolar (control set B); 100, 33.3, 11.1, 3.7, 1.2, 0.41 micromolar (control set C); or 100, 50, 30, 10, 3.3, 1.1, 0.37, 0.12, 0.04 micromolar (control set D). The concentrations used in the control set were selected to match the concentrations used in the testing set. The plates were then cultured at 37° C./5% CO2 for 21-24 hours. Cell-free supernatants were harvested by centrifuging the 96-well plates at 2100 rpm, 23° C. for 10 minutes. Approximately 160 microliters of the supernatant was then stored in a NUNC 96-well plate, covered with the compression cap and stored at −80° C. until the cytokine analysis was done.
IFN-alpha cytokine levels (picograms/mL) were measured by ELISA (human IFN-alpha, pan specific, Mabtech, Cincinnati, Ohio). […]

Q: Which results are given for `C[C@H](n1cnc2c(N)nc3ccccc3c21)C(C)(C)F` [Example 21, 1-[(1S)-2-fluoro-1,2-dimethyl-propyl]imidazo[4,5-c]quinolin-4-amine]?
A: cytokine production (statement in words) (IFN-alpha, IFN-gamma, TNF-alpha): inactive toward cytokine production; minimal effective concentration (ELISA, read-out: MEC to Induce Cytokine: IFN-alpha): > 100 µM; minimal effective concentration (multiplex bead assay, read-out: MEC to Induce Cytokine: IFN-gamma): > 100 µM; minimal effective concentration (multiplex bead assay, read-out: MEC to Induce Cytokine: TNF-alpha): > 100 µM
